Data reported in patent publication US10292998B1, “Compositions and methods for prevention and treatment of eye infections” (priority 2018, dated 2019).

Key:
[1] = tested on: bacteria on the surface of the eyeball; experiment: Bacterial count on the surface of the eyeball after eye drops of PVP-I/NAC combinations; type: in vivo, human; settings: NAC alone
Source text: The combinations were then applied, with one or more drops of the composition, each between 7 and 30 microliters in total volume, applied by syringe to the eye of a patient over a period of between 30 and 180 seconds. […] In comparison, experiments using NAC alone was ineffective in lowering bacterial count.

[2] = tested on: bacterial and viral infections; experiment: Treatment and prevention of eye infections, summary of the experiments; type: in vivo, human
Source text: Experiments have determined that PVP-I can be mixed with N-acetylcysteine (NAC), preferably in combination with an aqueous solution such as saline or water for improved lubrication, to form a medical eye drop treatment, which has the unexpected result of greatly reducing the bacteria count while simultaneously maintaining the pain at a tolerable level, or in some cases reducing the pain to a non-perceptible level. The active treatment components are preferably mixed by stirring at room temperature (that is, roughly 15-25° C.) and added to an aqueous solution. The PVP-I concentration of the mixture can be as low as 1.25% by volume of the treatment composition without substantially reducing its effectiveness at preventing eye infections of bacterial, viral, and fungal varieties.
Experiments were performed with differing ratios of PVP-I, NAC, and aqueous solution in combination. The PVP-I percentage by volume was varied between 0.5% and 80%, and the NAC percentage by volume was varied between 0.5% and 10%. The combinations were then applied, with one or more drops of the composition, each between 7 and 30 microliters in total volume, applied by syringe to the eye of a patient over a period of between 30 and 180 seconds.
An average eye drop contains 35 microliters, but the space between the human eye and the eyelid can only contain, in an average adult human, approximately 7 microliters of liquid. A human instinctively blinks upon addition of an eye drop to the eye, thereby forcing out most of the eye drop. As a result, only a fraction of a first eye drop will remain in the eye to mix with a second eye drop. […] As a result, the composition described above is not achieved.

[3] = tested on: bacteria on the eye surface; settings: 0.5%-0.7% PVP-I solution by volume dripped into the eye over 30 seconds, repeated every 90 seconds four times; cited from earlier work
viral conjunctivitis = settings: cited from earlier work
[4] = cited from earlier work

Compound: CC(=O)N[C@@H](CS)C(=O)O [NAC, N-acetylcysteine]
- lowering bacterial count [1]: ineffective
- treating or preventing infections ([2]; NAC without PVP-I): ineffective

Compound: Povidone-iodine [PVP-I]
- reduction of bacteria on the eye surface [3]: 99.9%
- treating pre-existing infections, especially viral infections such as viral conjunctivitis (viral conjunctivitis; PVP-I without NAC): largely ineffective
- effect on viral conjunctivitis infections (viral conjunctivitis; solution of 1.25% PVP-I by volume without NAC, previous study): no significant effect
- tolerability on the eye ([4]; 1.25% or 2.5% PVP-I concentrations): tolerable but still highly irritating
- pain during application ([4]; 10% PVP-I concentration by volume, surface of the eye): intolerable
- pain on application to the human eye ([4]; PVP-I especially at concentrations greater than 2.5% by volume): extreme immediate pain and a continuing burning sensation
- discomfort ([2]; summary of experiments): highly uncomfortable
- treating and preventing bacterial infections ([2]; summary of experiments): effective
- treating viral infections ([2]; summary of experiments): ineffective
